Experiments:
[1] = molecular target: T1, recombinant purified human EHMT2 913-1193 (Homo sapiens, UniProt Q96KQ7); test: EHMT2 enzyme assay on histone peptide substrate (3H-SAM Flashplate); format: biochemical; details: read-out: EHMT2 PEP (IC50 μM)
T1 construct: Recombinant purified human EHMT2 913-1193 (55 μM) synthesized by Viva was used for all experiments; purchased Viva
T1 sequence (Q96KQ7 913-1193): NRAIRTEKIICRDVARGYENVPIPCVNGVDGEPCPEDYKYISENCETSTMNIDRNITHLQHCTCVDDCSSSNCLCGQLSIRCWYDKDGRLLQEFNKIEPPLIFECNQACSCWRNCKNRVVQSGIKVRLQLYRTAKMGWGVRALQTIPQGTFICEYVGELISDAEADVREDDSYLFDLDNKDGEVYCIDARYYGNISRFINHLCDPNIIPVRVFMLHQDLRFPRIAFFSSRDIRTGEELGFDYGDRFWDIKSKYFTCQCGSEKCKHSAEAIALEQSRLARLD
Description: Recombinant purified human EHMT2 913-1193 (55 μM) synthesized by Viva was used for all experiments. Biotinylated histone peptides were synthesized by Biopeptide and HPLC-purified to >95% purity. Streptavidin Flashplates and seals were purchased from PerkinElmer and 384 Well V-bottom Polypropylene Plates were from Greiner. ^3H-labeled S-adenosylmethionine (3H-SAM) was obtained from American Radiolabeled Chemicals with a specific activity of 80 Ci/mmol. Unlabeled SAM and S-adenosylhomocysteine (SAH) were obtained from American Radiolabeled Chemicals and Sigma-Aldrich respectively. Flashplates were washed in a Biotek ELx-405 with 0.1% Tween. 384-well Flashplates and 96-well filter binding plates were read on a TopCount microplate reader (PerkinElmer). Compound serial dilutions were performed on a Freedom EVO (Tecan) and spotted into assay plates using a Thermo Scientific Matrix PlateMate (Thermo Scientific). Reagent cocktails were added by Multidrop Combi (Thermo Scientific).
General Procedure for EHMT2 Enzyme Assay on Histone Peptide Substrate.
10-point curves of test compounds were made on a Freedom EVO (Tecan) using serial 3-fold dilutions in DMSO, beginning at 2.5 mM (final top concentration of compound was 50 μM and the DMSO was 2%). A 1 μL aliquot of the inhibitor dilution series was spotted in a polypropylene 384-well V-bottom plate (Greiner) using a Thermo Scientific Matrix PlateMate (Thermo Scientific). The 100% inhibition control consisted of 1 mM final concentration of the product inhibitor S-adenosylhomocysteine (SAH, Sigma-Aldrich). Compounds were incubated for 30 minutes with 40 μL per well of 0.031 nM EHMT2 (recombinant purified human EHMT2 913-1193, Viva) in 1× assay buffer (20 mM Bicine [pH 7.5], 0.002% Tween 20, 0.005% Bovine Skin Gelatin and 1 mM TCEP). 10 μL per well of substrate mix comprising assay buffer, ^3H-SAM (3H-labeled S-adenosylmethionine, American Radiolabeled Chemicals, specific activity of 80 Ci/mmol), unlabeled SAM (American Radiolabeled Chemicals), and peptide representing histone H3 residues 1-15 containing C-terminal biotin (appended to a C-terminal amide-capped lysine, synthesized by Biopeptide and HPLC-purified to greater than 95% purity) were added to initiate the reaction (both substrates were present in the final reaction mixture at their respective Km values, an assay format referred to as “balanced conditions”). Reactions were incubated for 60 minutes at room temperature and quenched with 10 μL per well of 400 μM unlabeled SAM, then transferred to a 384-well streptavidin Flashplate (PerkinElmer) and washed in a Biotek ELx-405 well washer with 0.1% Tween after 60 minutes. 384-well Flashplates were read on a TopCount microplate reader (PerkinElmer).
IC50 curves were generated using triplicate wells per concentration of compound. The IC50 is the concentration of compound at which measured methylation is inhibited by 50% as interpolated from the dose response curves. IC50 values were calculated using a non-linear regression (variable slope-four parameter fit model) with by the following formula
where Top is fixed at 100% and Bottom is fixed to 0%, [I]=concentration of inhibitor, IC50=half maximal inhibitory concentration and n=Hill Slope.

[2] = molecular target: T2, EHMT1 (Homo sapiens, UniProt Q9H9B1); test: EHMT1 PEP (EHMT1 peptide enzyme assay); format: biochemical; details: peptide substrate enzyme assay
T2 sequence (Q9H9B1 1-1298): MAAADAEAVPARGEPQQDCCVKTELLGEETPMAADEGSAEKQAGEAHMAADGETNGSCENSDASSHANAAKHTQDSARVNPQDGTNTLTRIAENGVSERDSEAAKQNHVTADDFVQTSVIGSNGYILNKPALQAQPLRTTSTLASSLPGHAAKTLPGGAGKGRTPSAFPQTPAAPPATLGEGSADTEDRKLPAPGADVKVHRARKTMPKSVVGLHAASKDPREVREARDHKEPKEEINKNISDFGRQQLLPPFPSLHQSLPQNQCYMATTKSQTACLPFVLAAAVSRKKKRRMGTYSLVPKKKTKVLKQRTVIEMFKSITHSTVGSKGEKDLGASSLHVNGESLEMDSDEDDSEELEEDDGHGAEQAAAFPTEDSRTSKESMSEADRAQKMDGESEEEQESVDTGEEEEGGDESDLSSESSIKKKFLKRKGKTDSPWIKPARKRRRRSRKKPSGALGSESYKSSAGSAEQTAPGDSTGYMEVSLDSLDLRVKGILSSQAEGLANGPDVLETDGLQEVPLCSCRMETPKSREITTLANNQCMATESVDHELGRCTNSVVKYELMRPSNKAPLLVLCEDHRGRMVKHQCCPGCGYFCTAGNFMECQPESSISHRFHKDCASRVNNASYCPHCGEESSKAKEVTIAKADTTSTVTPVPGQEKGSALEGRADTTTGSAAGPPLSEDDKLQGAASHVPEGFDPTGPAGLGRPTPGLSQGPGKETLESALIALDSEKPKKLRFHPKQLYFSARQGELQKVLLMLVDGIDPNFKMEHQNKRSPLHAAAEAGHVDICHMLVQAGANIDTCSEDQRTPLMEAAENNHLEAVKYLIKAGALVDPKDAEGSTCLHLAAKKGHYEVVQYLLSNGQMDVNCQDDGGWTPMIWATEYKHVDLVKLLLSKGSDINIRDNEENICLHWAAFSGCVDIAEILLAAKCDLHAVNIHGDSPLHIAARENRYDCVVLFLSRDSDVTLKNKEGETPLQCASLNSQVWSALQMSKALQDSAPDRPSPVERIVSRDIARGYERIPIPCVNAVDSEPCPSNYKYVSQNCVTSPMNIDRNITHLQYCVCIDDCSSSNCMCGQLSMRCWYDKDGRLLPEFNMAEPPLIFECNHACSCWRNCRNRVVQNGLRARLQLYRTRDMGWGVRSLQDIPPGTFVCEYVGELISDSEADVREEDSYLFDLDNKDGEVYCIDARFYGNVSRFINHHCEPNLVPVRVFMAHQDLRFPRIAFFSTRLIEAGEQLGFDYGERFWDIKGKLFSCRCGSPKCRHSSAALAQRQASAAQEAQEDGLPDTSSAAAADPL

| SMILES | IC50 [1] | IC50 [2] |
| --- | --- | --- |
| CNc1cc(C)nc(Nc2ccc(C)c(C(=O)Nc3cc(C#N)ccn3)c2)n1 [Compound 303] | 1 to 10 µM | – |
| CNCc1cnn(-c2cc(Nc3nc(C)cc(NC)n3)ccc2C#N)c1 [Compound 332] | < 0.1 µM | < 0.1 µM |
| CNc1cc(C)nc(Nc2ccc(OC)c(-n3cc([C@H]4CCCN4)cn3)c2)n1 [Compound 334] | < 0.1 µM | < 0.1 µM |
| CNc1cc(C)nc(Nc2ccc(OC)c(-n3cc([C@@H]4CCCN4)cn3)c2)n1 [Compound 333] | < 0.1 µM | < 0.1 µM |
| CNc1cc(C)nc(Nc2ccc(Cl)c(C(=O)Nc3ncco3)c2)n1 [Compound 249] | – | 0.1 to 1 µM |
